“And” between values parts separate entries of the source, which are not always exact repeats. Equal values may be shown once. Results filed as inconclusive are left out.
System: T. cruzi beta-gal in NIH3T3, GalScreen luminescence, 90 h
Assay: inhibitors of Trypanosoma cruzi host-cell infection, confirmation, beta-gal luminescence, NIH3T3 host cells (AID 2630)

SMILES	EC50
CC(C)Oc1cccc(C(=O)C2CCCN(Cc3cnn(C(C)C)c3)C2)c1 (configuration not stated)	68 nM and 16.5 nM
CN(Cc1ccccc1)C(=O)C1CCCN(Cc2cccc(Cl)c2)C1 (configuration not stated)	231 nM and 34.7 nM
